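Following 48 hours of exposure in 96-well plates, responses at five concentrations were used to interpolate endpoints linearly. TGI is the concentration that stops growth completely.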
How the values were obtained:
Test in all cases: DTP human tumour cell line panel, 48 h
[1] = tested on: HCT-116 colon
[2] = tested on: HOP-62 NSCLC
[3] = tested on: ACHN renal
[4] = tested on: UACC-62 melanoma
[5] = tested on: PC-3 prostate
[6] = tested on: EKVX NSCLC
[7] = tested on: MDA-MB-435
[8] = tested on: SK-MEL-2 melanoma
[9] = tested on: TK-10 renal
[10] = tested on: M14 melanoma
[11] = tested on: COLO 205 colon
[12] = tested on: UACC-257 melanoma
[13] = tested on: MOLT-4 leukemia
[14] = tested on: KM12 colon
[15] = tested on: SK-OV-3 ovarian
[16] = tested on: SW-620 colon
[17] = tested on: RXF 393 renal
[18] = tested on: SF-539 CNS
[19] = tested on: SF-268 CNS
[20] = tested on: RPMI-8226 leukemia
[21] = tested on: NCI-H460 lung
[22] = tested on: CCRF-CEM leukemia
[23] = tested on: UO-31 renal
[24] = tested on: MALME-3M melanoma
[25] = tested on: IGROV1 ovarian
[26] = tested on: SF-295 CNS
[27] = tested on: OVCAR-4 ovarian
[28] = tested on: SN12C renal
[29] = tested on: A498 renal
[30] = tested on: SNB-19 CNS
[31] = tested on: NCI-H522 lung
[32] = tested on: DU-145 prostate
[33] = tested on: LOX IMVI melanoma
[34] = tested on: MDA-N
[35] = tested on: OVCAR-8 ovarian
[36] = tested on: MDA-MB-231 breast
[37] = tested on: HCT-15 colon
[38] = tested on: HCC-2998 colon
[39] = tested on: MCF7 breast
[40] = tested on: SK-MEL-28 melanoma
[41] = tested on: SNB-75 CNS
[42] = tested on: U251 CNS
[43] = tested on: OVCAR-3 ovarian
[44] = tested on: NCI/ADR-RES ovarian
[45] = tested on: CAKI-1 renal
[46] = tested on: OVCAR-5 ovarian
[47] = tested on: A549 NSCLC
[48] = tested on: NCI-H226 lung
[49] = tested on: SK-MEL-5 melanoma
[50] = tested on: T-47D breast
[51] = tested on: SR leukemia
[52] = tested on: NCI-H23 lung
[53] = tested on: K-562 leukemia
[54] = tested on: BT-549 breast
[55] = tested on: 786-0 renal
[56] = tested on: HT29 colon
[57] = tested on: HS 578T breast
[58] = tested on: HOP-92 NSCLC

How did the TGI [1] turn out when O=C1N[C@H]2C(=O)c3c(Br)sc(Br)c3[C@H]2O1 was run?
Its TGI is 7.33 µM.

What about the TGI [2] of the same compound?
Its TGI is 44.5 µM.

And the TGI [3]?
Its TGI is 18.1 µM.

And the TGI [4]?
Its TGI is 26.7 µM.

And the TGI [5]?
Its TGI is 16.4 µM.

And the TGI [6]?
Its TGI is 13 µM.

What about the TGI [7] of the same compound?
The TGI was 26.7 µM.

What about the TGI [8] of the same compound?
The TGI was 31.9 µM.

And the TGI [9]?
The TGI was 41 µM.

What about the TGI [10] of the same compound?
Its TGI is 10.4 µM.

What about the TGI [11] of the same compound?
The TGI was 8.17 µM.

And the TGI [12]?
Its TGI is 21.7 µM.

What about the TGI [13] of the same compound?
The TGI was 5.25 µM.

What about the TGI [14] of the same compound?
Its TGI is over 55.5 µM.

And the TGI [15]?
Its TGI is 34.7 µM.

And the TGI [16]?
Its TGI is 4.76 µM.

And the TGI [17]?
The TGI was 10.4 µM.

And the TGI [18]?
The TGI was 32.1 µM.

What about the TGI [19] of the same compound?
The TGI was 14.2 µM.

And the TGI [20]?
Its TGI is over 45 µM.

What about the TGI [21] of the same compound?
The TGI was 35 µM.

And the TGI [22]?
The TGI was 3.63 µM.

What about the TGI [23] of the same compound?
The TGI was 4.22 µM.

What about the TGI [24] of the same compound?
Its TGI is 11.3 µM.

What about the TGI [25] of the same compound?
The TGI was 25.3 µM.

And the TGI [26]?
Its TGI is 37 µM.

What about the TGI [27] of the same compound?
Its TGI is 31.3 µM.

What about the TGI [28] of the same compound?
The TGI was 11.4 µM.

And the TGI [29]?
Its TGI is 33.2 µM.

And the TGI [30]?
Its TGI is 30.7 µM.

And the TGI [31]?
The TGI was 3.22 µM.

And the TGI [32]?
The TGI was 28.9 µM.

And the TGI [33]?
The TGI was 11.4 µM.

What about the TGI [34] of the same compound?
The TGI was 20.1 µM.

What about the TGI [35] of the same compound?
Its TGI is 13 µM.

And the TGI [36]?
Its TGI is 22.4 µM.

What about the TGI [37] of the same compound?
The TGI was 4 µM.

What about the TGI [38] of the same compound?
The TGI was 24.2 µM.

What about the TGI [39] of the same compound?
The TGI was 25.4 µM.

And the TGI [40]?
Its TGI is 10.7 µM.

And the TGI [41]?
The TGI was 31.4 µM.

And the TGI [42]?
Its TGI is 8.87 µM.

What about the TGI [43] of the same compound?
Its TGI is 17 µM.

And the TGI [44]?
Its TGI is 39 µM.

What about the TGI [45] of the same compound?
Its TGI is 9.81 µM.

What about the TGI [46] of the same compound?
The TGI was 34.3 µM.

And the TGI [47]?
The TGI was 40.4 µM.

And the TGI [48]?
The TGI was 34.6 µM.

And the TGI [49]?
Its TGI is 27.7 µM.

And the TGI [50]?
The TGI was 55 µM.

What about the TGI [51] of the same compound?
The TGI was 6.27 µM.

And the TGI [52]?
The TGI was 17.7 µM.

And the TGI [53]?
Its TGI is over 21.7 µM.

And the TGI [54]?
The TGI was 28.3 µM.

And the TGI [55]?
The TGI was 24.1 µM.

What about the TGI [56] of the same compound?
Its TGI is 6.59 µM.

And the TGI [57]?
The TGI was 58.6 µM.

What about the TGI [58] of the same compound?
The TGI was 28.9 µM.

What does the source list for CCC1C(NC(=O)OC)C(=O)N1[C@@H](C)c1ccccc1 (some centres undefined)?
TGI [1]: > 100 µM; TGI [2]: > 100 µM; TGI [3]: > 100 µM; TGI [4]: > 100 µM; TGI [5]: > 100 µM; TGI [6]: > 100 µM; TGI [7]: > 100 µM; TGI [8]: > 100 µM; TGI [9]: > 100 µM; TGI [10]: > 100 µM; TGI [11]: > 100 µM; TGI [12]: > 100 µM; TGI [13]: > 100 µM; TGI [14]: > 100 µM; TGI [15]: > 100 µM; TGI [16]: > 100 µM; TGI [17]: > 100 µM; TGI [18]: > 100 µM; TGI [19]: > 100 µM; TGI [20]: > 100 µM; TGI [21]: > 100 µM; TGI [23]: > 100 µM; TGI [24]: > 100 µM; TGI [25]: > 100 µM; TGI [26]: > 100 µM; TGI [27]: > 100 µM; TGI [28]: > 100 µM; TGI [29]: > 100 µM; TGI [30]: > 100 µM; TGI [31]: > 100 µM; TGI [32]: > 100 µM; TGI [33]: > 100 µM; TGI [34]: > 100 µM; TGI [35]: > 100 µM; TGI [36]: > 100 µM; TGI [37]: > 100 µM; TGI [38]: > 100 µM; TGI [39]: > 100 µM; TGI [40]: > 100 µM; TGI [41]: > 100 µM; TGI [42]: > 100 µM; TGI [43]: > 100 µM; TGI [44]: > 100 µM; TGI [45]: > 100 µM; TGI [46]: > 100 µM; TGI [48]: > 100 µM; TGI [49]: > 100 µM; TGI [50]: > 100 µM; TGI [51]: > 100 µM; TGI [52]: > 100 µM; TGI [53]: > 100 µM; TGI [54]: > 100 µM; TGI [55]: > 100 µM; TGI [56]: > 100 µM; TGI [57]: > 100 µM; TGI [58]: > 100 µM

From PubChem BioAssay (NCI)
